Columns and labels:
[1] = tested on: KB3-1 human epidermoid carcinoma tumor cells; assay: MTT cytotoxicity assay (Test B); format: cell-based; details: KB 3-1, 96 h, cells cultured 4 days
Text: (§1) Test B. Evaluation of G-Quadruplex Stabilizers using the MTT Assay.
(§2) Cell lines are selected based upon one or more factors including data on their relative telomerase activity, varied organ sites, available comparative data, and their ability to form solid tumors in athymic nude mice. The advantage of an MTT assay is that the cytotoxic/cytostatic activities can be readily determined.

[2] = tested on: human lymphoblastoma cell line RPMI 8402; assay: MTT cytotoxicity assay (Test B); format: cell-based; details: RPMI 8402, 96 h, cells cultured 4 days
Text: as §1, §2

[3] = tested on: HBC-4, BSY-1, HBC-5, MCF-7, and MDA-MB-231; details: range over HBC-4, BSY-1, HBC-5, MCF-7, MDA-MB-231; read-out: GI50 against human breast cancer cell lines; cited from earlier work
Salmon Testes Duplex DNA = assay: UV melting, thermal stabilization of duplex DNA (Test A); format: binding; details: pH 7.5, 50 mM K+; Tm of the drug-DNA complex minus that of the DNA alone; absorbance at 260 nm
Text: (§3) Test A. Selective Stabilization of G-Quadruplex DNA Analyses can be performed to determine the ability of the compounds to selectively bind and thermally stabilize quadruplex relative to duplex DNA. Toward this end, the UV absorbances of the DNA molecules are monitored as a function of temperature in the absence and presence of compound. The melting of duplex DNA is generally associated with a hyperchromic shift at 260 nm, while the melting of quadruplex DNA is associated with a hypochromic shift at 295 nm. Thus, the temperature-dependent absorbances of duplex DNA are monitored at 260 nm, with the corresponding quadruplex absorbances being monitored at 295 nm. Salmon testes DNA can be used as a representative model of duplex DNA and d([…])4 can be used as a representative model of quadruplex DNA. All UV melting studies are conducted at physiological pH (7.4) in the presence of potassium ions at physiologically relevant concentrations. Representative compounds of formula I (compounds 6, 32, and 33) were evaluated for their abilities to selectively bind and stabilize G-quadruplex relative to duplex DNA. […] By contrast, none of the compounds exert any impact on the thermal stability of the DNA duplex (ΔTm=0° C. for all three compounds).

[4] = tested on: Human Telomeric G-Quadruplex DNA d(T2AG3)4; assay: UV melting, thermal stabilization of G-quadruplex DNA (Test A); format: binding; details: pH 7.5, 50 mM K+; Tm of the drug-DNA complex minus that of the DNA alone; absorbance at 295 nm
Text: as §3

[5] = tested on: MDA-MB-435 human tumor xenografts (human melanoma cells); assay: Human tumor xenograft athymic nude mouse model (Test C); format: in vivo, female NCR/NU NU mice; details: ip injection; athymic nude mice; tumor volume
Protocol: Test C. Evaluation of G-Quadruplex Stabilizers in the Human Tumor Xenograft Athymic Nude Mouse Model.
Compound 33 inhibited the growth of MDA-MD-435 human tumor xenografts (developed from human melanoma cells) in vivo by more than 50% when administered by ip injection. Bioassays were performed using female NCR/NU NU mice of approximately 9 weeks of age as obtained from Taconic Farms, Inc. (Germantown, N.Y., USA). Mice were housed 4 per cage in laminar flow HEPA filtered microisolator caging (Allentown Caging Equipment Co., Allentown, N.J., USA). Mice were fed Purina autoclavable breeder chow #5021 and given drinking water, purified by reverse-osmosis, ad libitum. Five days after arrival within the animal facility, the mice were inoculated on the right flank with 1.5×10^6 MDA-MB-435 tumor cells in 0.1 mL of RPMI 1640 Media by sc injection (25 gauge needle×⅝″). The MDA-MB-435 cells were grown in 75 cm^2 flasks using RPMI 1640 Media and 10% fetal bovine serum. Tumors were of sufficient size at 19-20 days after inoculation. Tumor-bearing mice were evenly matched in each experimental group based on tumor volume. Tumor volume was calculated by measuring the tumor with a microcaliper. The length (l) is the maximum two dimensional distance of the tumor and the width (w) is the maximum distance perpendicular to this length measured in mm. Tumor volume was calculated using the formula (l*w^2)/2.

LAN5 = details: human neuroblastoma cell line; read-out: cytotoxicity IC50 LAN5; cited from earlier work
SK-N-AS = details: human neuroblastoma cell line; read-out: cytotoxicity IC50 SK-N-AS; cited from earlier work
MiaPaCa = details: human pancreatic carcinoma; read-out: cytotoxicity IC50 MiaPaCa; cited from earlier work
telomerase = details: read-out: telomerase inhibitory activity IC50; cited from earlier work
WAC2 = details: human neuroblastoma cell line; read-out: cytotoxicity IC50 WAC2; cited from earlier work
LAN1 = details: human neuroblastoma cell line; read-out: cytotoxicity IC50 LAN1; cited from earlier work

| SMILES | melting point | IC50 [1] [nM] | IC50 [2] [nM] | further results |
| --- | --- | --- | --- | --- |
| O=C1NCc2cccc(c2)CNC(=O)c2coc(n2)-c2csc(n2)-c2cccc(n2)-c2nc(cs2)-c2nc1co2 [Compound 22] | 245 °C | > 10000 | > 10000 |  |
| O=C1NCc2cccc(c2)CNC(=O)c2coc(n2)-c2coc(n2)-c2cc(Br)cc(n2)-c2nc(co2)-c2nc1co2 [Compound 28] | 211 to 213 °C | 150 | 300 |  |
| O=C1NCCNCCNC(=O)c2coc(n2)-c2coc(n2)-c2cccc(n2)-c2nc(co2)-c2nc1co2 [Compound 8] | 276 °C (dec.) | 4000 | > 10000 |  |
| O=C(NCCc1cc2cc(c1)CNC(=O)c1coc(n1)-c1coc(n1)-c1cc(Br)cc(n1)-c1nc(co1)-c1nc(co1)C(=O)NC2)OCc1ccccc1 [Compound 35] | 204 to 205 °C | 600 | 1000 |  |
| O=C1NCc2cc(Br)cc(c2)CNC(=O)c2coc(n2)-c2coc(n2)-c2cc(Br)cc(n2)-c2nc(co2)-c2nc1co2 [Compound 34] | 250 °C (dec.) | > 10000 | > 10000 |  |
| O=C1NCc2cc(Br)cc(c2)CNC(=O)c2coc(n2)-c2coc(n2)-c2cc(OCCCN3C(=O)c4ccccc4C3=O)cc(n2)-c2nc(co2)-c2nc1co2 [Compound 44] | 289 to 290 °C (dec.) | 1000 | 1000 |  |
| CC[C@H](C)[C@@H]1NC(=O)c2nc(oc2-c2ccccc2)-c2csc(n2)-c2coc(n2)-c2coc(n2)-c2coc(n2)CNC(=O)[C@@H](C(C)C)NC1=O [YM-216391] |  |  |  | GI50 [3]: 15 to 33 nM |
| O=C1NCc2cccc(c2)CNC(=O)c2coc(n2)-c2coc(n2)-c2cccc(n2)-c2nc(co2)-c2nc1co2 [Compound 6] | 320 to 324 °C (dec.) | 1200 | 1050 | Salmon Testes Duplex DNA ΔTm (Salmon Testes Duplex DNA): 0 °C; Human Telomeric G-Quadruplex DNA ΔTm [4]: 20.5 °C |
| O=C1NCc2cc(Br)cc(c2)CNC(=O)c2coc(n2)-c2coc(n2)-c2cccc(n2)-c2nc(co2)-c2nc1co2 [Compound 29] | 248 to 250 °C | 60 | 300 |  |
| O=C1NCc2cccc(n2)CNC(=O)c2coc(n2)-c2coc(n2)-c2cccc(n2)-c2nc(co2)-c2nc1co2 [Compound 7] | 330 °C (dec.) | > 5000 | > 5000 |  |
| O=C(NCCc1cc2cc(c1)CNC(=O)c1coc(n1)-c1coc(n1)-c1cc(OCCCN3C(=O)c4ccccc4C3=O)cc(n1)-c1nc(co1)-c1nc(co1)C(=O)NC2)OCc1ccccc1 [Compound 45] | 167 to 170 °C | > 10000 | > 10000 |  |
| O=C1NCc2cc(CCNC(=O)C(F)(F)F)cc(c2)CNC(=O)c2coc(n2)-c2coc(n2)-c2cc(Br)cc(n2)-c2nc(co2)-c2nc1co2 [Compound 36] | 305 to 307 °C (dec.) | 4000 | > 10000 |  |
| CN(C)CCc1cc2cc(c1)CNC(=O)c1coc(n1)-c1coc(n1)-c1cccc(n1)-c1nc(co1)-c1nc(co1)C(=O)NC2 [Compound 33] | 295 °C (dec.) | 40 | 180 | Salmon Testes Duplex DNA ΔTm (Salmon Testes Duplex DNA): 0 °C; Human Telomeric G-Quadruplex DNA ΔTm [4]: 31.5 °C; inhibition of growth of human tumor xenografts in vivo [5]: more than 50% |
| CN(C)CCc1oc2nc1C(=O)NCc1cccc(c1)CNC(=O)c1nc(oc1CCN(C)C)-c1coc(n1)-c1cccc(n1)-c1nc-2co1 [Compound 78] |  | 100 | 200 |  |
| NCCc1cc2cc(c1)CNC(=O)c1coc(n1)-c1coc(n1)-c1cccc(n1)-c1nc(co1)-c1nc(co1)C(=O)NC2 [Compound 32] | 277 to 280 °C (dec.) | 30 | 90 |  |
| NCCCOc1cc2nc(c1)-c1nc(co1)-c1nc(co1)C(=O)NCc1cccc(c1)CNC(=O)c1coc(n1)-c1coc-2n1 [Compound 46] | 237 to 239 °C (dec.) | 3000 | 5000 |  |
| CC(C)(C)OC(=O)NCCc1cc2cc(c1)CNC(=O)c1coc(n1)-c1coc(n1)-c1cccc(c1)-c1nc(co1)-c1nc(co1)C(=O)NC2 [Compound 59] |  | 3100 | 3600 |  |
| O=C1NCc2cc(CCNC(=O)C(F)(F)F)cc(c2)CNC(=O)c2coc(n2)-c2coc(n2)-c2cccc(n2)-c2nc(co2)-c2nc1co2 [Compound 31] | 290 °C (dec.) | 70 | 170 |  |
| O=C(NCCc1cc2cc(c1)CNC(=O)c1coc(n1)-c1coc(n1)-c1cccc(n1)-c1nc(co1)-c1nc(co1)C(=O)NC2)OCc1ccccc1 [Compound 30] | 196 to 198 °C | 120 | 120 |  |
| CN(C)c1cc2cc(c1)CNC(=O)c1coc(n1)-c1coc(n1)-c1cccc(n1)-c1nc(co1)-c1nc(co1)C(=O)NC2 [Compound 48] |  | 30 | 60 |  |
| CN(C)CCc1cc2cc(c1)CNC(=O)c1coc(n1)-c1coc(n1)-c1cccc(c1)-c1nc(co1)-c1nc(co1)C(=O)NC2 [Compound 61] |  | 400 | 2000 |  |
| CC(=O)NCCCOc1cc2nc(c1)-c1nc(co1)-c1nc(co1)C(=O)NCc1cccc(c1)CNC(=O)c1coc(n1)-c1coc-2n1 [Compound 47] |  | 10000 | > 10000 |  |
| O=C1NCc2cccc(c2)CNC(=O)c2coc(n2)-c2csc(n2)-c2cccc(n2)-c2nc(co2)-c2nc1co2 [Compound 14] | 274 to 275 °C (dec.) | 260 | 1000 |  |
| O=C1NCc2cccc(c2)CNC(=O)c2coc(n2)-c2coc(n2)-c2cc(OCCCN3C(=O)c4ccccc4C3=O)cc(n2)-c2nc(co2)-c2nc1co2 [Compound 43] | 249 to 252 °C (dec.) | 400 | 4500 |  |
| Cc1oc2nc1-c1nc(co1)-c1nc(co1)-c1nc(co1)-c1nc(co1)-c1nc(co1)C1=NC(CS1)c1nc-2c(C)o1 (stereo not shown) [Telomestatin] |  |  |  | IC50 (LAN5): 2500 nM; IC50 (SK-N-AS): 800 nM; IC50 (MiaPaCa): 500 nM; IC50 (telomerase): 5 nM; IC50 (WAC2): 3200 nM; IC50 (LAN1): 4000 nM |

Reference: patent publication US8796300B2, “Therapeutic compounds” (Rutgers, the State University of New Jersey, priority 2009, dated 2014)
